In assay [1] the target is T1, acetylcholinesterase (Rattus norvegicus, UniProt P37136).
T1 construct: corpora striata dissected free, weighted and homogenized in 19 volumes; from tissue; host or cells: rat brain corpora striata, crude homogenate
T1 sequence (P37136 32-614): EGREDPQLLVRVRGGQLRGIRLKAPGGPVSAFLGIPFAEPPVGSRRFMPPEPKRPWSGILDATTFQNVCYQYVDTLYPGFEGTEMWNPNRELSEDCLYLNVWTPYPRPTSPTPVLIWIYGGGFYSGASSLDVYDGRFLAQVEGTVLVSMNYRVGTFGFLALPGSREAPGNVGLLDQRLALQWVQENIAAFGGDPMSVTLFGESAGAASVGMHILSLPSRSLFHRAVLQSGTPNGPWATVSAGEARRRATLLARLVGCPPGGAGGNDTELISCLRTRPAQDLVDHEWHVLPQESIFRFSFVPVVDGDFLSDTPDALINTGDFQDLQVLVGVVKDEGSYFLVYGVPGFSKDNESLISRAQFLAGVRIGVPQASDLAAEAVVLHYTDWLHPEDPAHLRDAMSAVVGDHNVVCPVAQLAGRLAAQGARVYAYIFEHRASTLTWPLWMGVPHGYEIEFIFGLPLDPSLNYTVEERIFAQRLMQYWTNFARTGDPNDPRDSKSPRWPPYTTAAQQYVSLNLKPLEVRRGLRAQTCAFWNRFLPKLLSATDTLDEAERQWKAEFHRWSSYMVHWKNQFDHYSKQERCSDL
The experiment in a line: biochemical. Also on record: species or system Male Wistar rats.
Method: 0.05M Phosphate Buffer (pH 7.2)
A solution of monobasic sodium phosphate monohydrate (6.85 g) in distilled water (100 ml) is added to a solution of dibasic sodium phosphate heptahydrate (13.4 g) and distilled water (100 ml) until a pH of 7.2 was attained. The solution was diluted 1 to 10 with distilled water.
5,5-Dithiobisnitrobenzoic acid in Buffer
The 0.05M Phosphate Buffer (pH 7.2) was added to 5.5-dithiobisnitrobenzoic acid to a total volume of 100 ml, i.e., a quantity sufficient (gs) to 100 ml.
A 2 millimolar stock solution of the test drug is prepared in a quantity sufficient of either acetic acid or dimethyl sulfoxide to volume with 5,5-dithiobisnitrobenzoic acid in Buffer. […]
Male Wistar rats are decapitated, brains rapidly removed, corpora striata dissected free, weighted and homogenized in 19 volumes (approximately 7 mg protein/ml) of 0.05M Phosphate Buffer (pH 7.2) using a Potter-Elvejhem homogenizer. […] Enzyme activity is measured with a Beckman DU-50 spectrophotometer with the following software and instrument settings: • 1. […]
Blank values are determined for each run to control for non-enzymatic hydrolysis of substrate and these values are automatically subtracted by the Kindata program available on kinetics soft-pac module. This program also calculates the rate of absorbance change for each cuvette. […]
IC50 values are calculated from log-probit analysis

Assay [2] deals with clonidine: α2-receptor. The experiment in a line: in vitro clonidine binding: α2-receptor assay. Also on record: species or system Male Wistar rats. The conditions noted are these: rat cortical tissue homogenate; 3 nM 3H-clonidine; 20 minutes at 25° C; log-probit analysis; read-out: Inhibition of clonidine binding activity IC50.
Method: The following reagents are prepared: 1.
[4-^3H]-Clonidine Hydrochloride (20-30 Ci/mmol) is obtained from New England Nuclear. […] Clonidine hydrochloride is obtained from Boehringer Ingelheim. A stock solution of 0.1 mM clonidine is made up to determine nonspecific binding. This yields a final concentration of 1 µM in the assay (20 µl to 2 ml). […] Test compounds. For most assays, a 1 mM stock solution is made up in a suitable solvent and serially diluted, such that the final concentration in the assay ranges from 10-^5 to 10-^8M.
Male Wistar rats are sacrificed by decapitation and the cortica tissue rapidly dissected. The tissue is homogenized in 50 volumes of 0.05 M Tris buffer, pH 7.7 (buffer 1b) with the Brinkman Polytron, then centrifuged at 40,000 g for 15 minutes. The supernatant is discarded and the pellet rehomogenized in the original volume of 0.05 M Tris buffer, pH 7.7 and recentrifuged as before. The supernate is discarded and the final pellet rehomogenized in 50 volumes of Buffer 2b. This tissue suspension is then stored on ice. The final tissue concentration is 10 mg/ml. […]
Tissue homogenates are incubated for 20 minutes at 25° C with 3 nM ^3H-clonidine and varying drug concentrations, then immediately filtered under reduced pressure on Whatman GF/B filters. […] Ten ml of liquescent counting solution is added to each sample which is then counted by liquid scintillation spectroscopy. […]

Where a name gives a salt, the structure may show the parent alone.

For `C#CCOc1cc(CN2CCN(c3ccccn3)CC2)ccc1OC` [4-Methoxy-3-(propargyloxy)-1-[[4-(pyridin-2-yl)piperazin-1-yl]methyl] benzene hydrochloride monohydrate], the IC50 in assay [1] was 26900 nM; in assay [2], 34.6 nM. On to `C#CCOc1cc(CN2CCCC2)ccc1OC(=O)NC` [reference compound], for which the IC50 in assay [1] was found to be 3.6 nM.
